From patent US20260191874A1, “FUSED AMINO PYRIMIDINE COMPOUNDS FOR TREATMENT OF AUTISM SPECTRUM DISORDER, OBSESSIVE COMPULSIVE DISORDER AND TICS” (Ovid Therapeutics Inc., priority 2024, published 2026)

Biological target: T1, KCC2 (Homo sapiens, UniProt Q9H2X9)
T1 construct: expressed in transfected cells; host or cells: HEK-293 (ATCC CRL-1573)
T1 sequence (Q9H2X9 1-1116 isoform Q9H2X9-2): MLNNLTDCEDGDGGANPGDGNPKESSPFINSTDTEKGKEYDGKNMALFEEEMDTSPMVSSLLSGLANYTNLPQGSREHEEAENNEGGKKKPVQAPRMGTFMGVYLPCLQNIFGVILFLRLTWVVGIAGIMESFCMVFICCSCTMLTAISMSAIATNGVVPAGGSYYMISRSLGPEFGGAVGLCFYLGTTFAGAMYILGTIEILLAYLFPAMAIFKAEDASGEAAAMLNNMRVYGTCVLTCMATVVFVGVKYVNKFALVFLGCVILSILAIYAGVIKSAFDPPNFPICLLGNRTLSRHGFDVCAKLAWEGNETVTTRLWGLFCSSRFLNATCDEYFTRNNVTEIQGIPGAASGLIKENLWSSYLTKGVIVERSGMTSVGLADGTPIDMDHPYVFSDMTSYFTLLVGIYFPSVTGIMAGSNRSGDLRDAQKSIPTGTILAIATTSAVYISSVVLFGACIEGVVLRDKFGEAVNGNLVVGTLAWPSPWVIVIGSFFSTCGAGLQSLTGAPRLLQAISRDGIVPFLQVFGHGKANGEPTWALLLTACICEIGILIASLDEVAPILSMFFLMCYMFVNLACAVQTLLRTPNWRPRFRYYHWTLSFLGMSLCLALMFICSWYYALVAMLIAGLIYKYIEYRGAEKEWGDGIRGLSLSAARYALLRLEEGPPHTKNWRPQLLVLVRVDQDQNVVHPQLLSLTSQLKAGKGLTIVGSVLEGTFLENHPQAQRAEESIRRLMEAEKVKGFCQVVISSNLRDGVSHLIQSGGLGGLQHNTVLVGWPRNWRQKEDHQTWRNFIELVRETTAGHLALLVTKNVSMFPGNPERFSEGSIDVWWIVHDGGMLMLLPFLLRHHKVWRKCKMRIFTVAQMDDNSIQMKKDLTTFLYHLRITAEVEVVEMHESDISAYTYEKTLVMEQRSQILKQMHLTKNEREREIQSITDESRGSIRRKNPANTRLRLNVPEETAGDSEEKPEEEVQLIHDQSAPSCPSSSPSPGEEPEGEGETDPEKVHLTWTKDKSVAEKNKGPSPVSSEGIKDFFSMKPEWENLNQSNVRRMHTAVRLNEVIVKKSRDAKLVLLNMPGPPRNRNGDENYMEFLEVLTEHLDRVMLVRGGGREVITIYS
Assay: Cell surface biotinylation of KCC2 in HEK-293 cells
Format: cell-based
Conditions: 15 min
Description: Cell Culture and biotinylation. HEK-293 cells were purchased from ATCC (CRL-1573) and transfected with human KCC2 and GFP expression plasmids using Lipofectamine 2000. Cells were utilized for experimentation 48-72 h following transfection. Cells were biotinylated at 4° C. using NHS-Biotin. Following lysis and purification on immobilized avidin beads, cell surface and total fractions were subject to immunoblotting as outlined previously (Conway et al., 2017, supra).
The reliability of the biotinylation procedure was assessed via immunoblotting with antibodies against the cytosolic protein actin. Actin was present in the total lysates but was absent from the surface fractions (FIG. 2C).

Structure (SMILES): C[C@@H]1CN(c2nc3c(c(Nc4ccc(C5CCCCC5)cc4)n2)COC3)CCO1 [Compound A, (R)—N-(4-cyclohexylphenyl)-2-(2-methylmorpholino)-5,7-dihydrofuro[3,4-d]pyrimidin-4-amine]
- level of KCC2 on the plasma membrane (surface/total) (0.3 μM): 94.5±8.4 % of control
- level of KCC2 on the plasma membrane (surface/total) (3 μM): 104.7±8.4 % of control
